Assay results as given in patent US12209075B2, “Pyridine-sulfonamide derivatives as sodium channel inhibitors” (GENENTECH, INC., priority 2018, dated 2025).
Where a name gives a salt, the structure may show the parent alone.

The compounds below were run against hNav1.7 (Homo sapiens (Human), UniProt Q15858) (assay: Tritiated compound binding to membranes from cells expressing hNav1.7 and the β1 subunit (Nav1.7 LBA EVO)). Conditions: competitive binding vs [3H]compound, membranes with hNav1.7 and β1 subunit.
hNav1.7, sequence (Q15858 whole entry, looked up): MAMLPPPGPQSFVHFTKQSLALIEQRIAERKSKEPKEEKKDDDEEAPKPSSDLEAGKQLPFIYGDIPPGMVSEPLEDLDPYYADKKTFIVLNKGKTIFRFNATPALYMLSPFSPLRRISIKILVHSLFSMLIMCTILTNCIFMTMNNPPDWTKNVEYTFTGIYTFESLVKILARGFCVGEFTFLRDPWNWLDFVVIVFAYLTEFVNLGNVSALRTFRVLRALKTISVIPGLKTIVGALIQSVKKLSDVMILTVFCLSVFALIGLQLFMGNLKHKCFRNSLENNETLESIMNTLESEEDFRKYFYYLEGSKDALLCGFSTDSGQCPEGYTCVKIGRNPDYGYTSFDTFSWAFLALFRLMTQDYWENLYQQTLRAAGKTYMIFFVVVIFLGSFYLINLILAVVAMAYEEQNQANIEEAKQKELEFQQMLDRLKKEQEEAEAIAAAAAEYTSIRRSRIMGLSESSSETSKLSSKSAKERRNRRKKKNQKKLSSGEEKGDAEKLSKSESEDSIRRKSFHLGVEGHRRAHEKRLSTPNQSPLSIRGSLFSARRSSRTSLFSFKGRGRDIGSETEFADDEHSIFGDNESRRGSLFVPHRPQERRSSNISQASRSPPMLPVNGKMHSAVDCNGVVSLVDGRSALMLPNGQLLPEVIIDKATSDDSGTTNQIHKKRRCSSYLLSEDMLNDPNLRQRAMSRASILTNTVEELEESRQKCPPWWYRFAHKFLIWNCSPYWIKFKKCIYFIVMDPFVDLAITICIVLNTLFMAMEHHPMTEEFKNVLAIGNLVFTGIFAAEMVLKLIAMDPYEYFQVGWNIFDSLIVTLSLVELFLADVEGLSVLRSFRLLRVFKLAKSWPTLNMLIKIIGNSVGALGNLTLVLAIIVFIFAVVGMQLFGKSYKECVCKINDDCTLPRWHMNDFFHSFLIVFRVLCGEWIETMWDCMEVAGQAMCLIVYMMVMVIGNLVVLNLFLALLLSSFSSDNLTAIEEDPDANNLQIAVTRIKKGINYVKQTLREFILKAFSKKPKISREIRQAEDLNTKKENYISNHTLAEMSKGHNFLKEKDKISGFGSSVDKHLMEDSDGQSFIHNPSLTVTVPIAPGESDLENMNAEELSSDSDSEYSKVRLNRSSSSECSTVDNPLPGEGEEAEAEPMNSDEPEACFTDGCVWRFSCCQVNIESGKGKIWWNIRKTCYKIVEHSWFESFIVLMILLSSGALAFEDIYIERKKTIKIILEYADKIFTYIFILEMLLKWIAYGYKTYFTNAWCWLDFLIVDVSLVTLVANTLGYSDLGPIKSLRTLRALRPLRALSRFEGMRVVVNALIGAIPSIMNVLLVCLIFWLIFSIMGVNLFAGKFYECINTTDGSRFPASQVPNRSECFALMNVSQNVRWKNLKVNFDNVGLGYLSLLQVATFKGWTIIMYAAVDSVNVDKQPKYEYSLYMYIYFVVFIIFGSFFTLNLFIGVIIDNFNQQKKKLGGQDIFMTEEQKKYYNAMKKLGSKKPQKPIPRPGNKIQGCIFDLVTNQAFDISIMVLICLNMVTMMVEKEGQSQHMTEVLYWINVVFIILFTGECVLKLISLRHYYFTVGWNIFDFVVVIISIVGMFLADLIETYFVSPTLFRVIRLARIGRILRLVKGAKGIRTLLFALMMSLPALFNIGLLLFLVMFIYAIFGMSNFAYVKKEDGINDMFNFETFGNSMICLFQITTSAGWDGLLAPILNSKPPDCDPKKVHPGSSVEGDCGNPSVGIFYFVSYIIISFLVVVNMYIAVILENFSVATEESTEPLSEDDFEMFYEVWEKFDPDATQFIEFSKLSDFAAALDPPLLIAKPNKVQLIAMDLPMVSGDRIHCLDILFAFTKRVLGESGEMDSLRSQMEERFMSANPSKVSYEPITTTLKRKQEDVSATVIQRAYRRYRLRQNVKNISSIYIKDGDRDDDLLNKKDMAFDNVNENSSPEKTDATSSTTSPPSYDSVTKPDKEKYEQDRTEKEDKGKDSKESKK
hNav1.7, sequence (Q07699 whole entry partner, looked up): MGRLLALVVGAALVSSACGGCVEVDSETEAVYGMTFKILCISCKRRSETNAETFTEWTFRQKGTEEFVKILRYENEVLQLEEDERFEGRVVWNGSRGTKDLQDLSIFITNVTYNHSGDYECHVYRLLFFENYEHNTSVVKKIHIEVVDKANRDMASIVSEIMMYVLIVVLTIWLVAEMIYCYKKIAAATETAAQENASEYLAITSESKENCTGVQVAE
Experimental: Example 64a. Tritiated Compound Binding to Membranes Isolated from Cells that Heterologously Express hNav1.7 and the β1 Subunit
Preparation of membranes containing recombinantly expressed sodium channels: Frozen recombinant cell pellets are thawed on ice and diluted to 4 times the cell pellet weight with ice cold 50 mM Tris HCl, pH 7.4 buffer. The cell suspensions are homogenized on ice using a motorized glass dounce homogeniser. Homogenates are further diluted 8.4 times with ice cold 50 mM Tris HCl, pH 7.4 buffer and then centrifuged at 200×g at 4° C. for 15 minutes. The supernatants are collected and centrifuged at 10000×g at 4° C. for 50 min. The pellets are then re-suspended in 100 mM NaCl, 20 mM Tris HCl, pH 7.4 buffer containing 1% v/v protease inhibitors (Calbiochem) and re-homogenized on ice. The homogenized membranes are then processed through a syringe equipped with a 26 gauge needle. Protein concentrations arer determined by Bradford Assay and the membranes are stored at −80° C.
Radioligand Binding Studies: Saturation experiments. A competitive NaV1.7 inhibitor having a methyl group is tritiated. Three tritiums are incorporated in place of methyl hydrogens to generate [^3H]compound. Binding of this radioligand is performed in 5 mL borosilicate glass test tubes at room temperature. Binding is initiated by adding membranes to increasing concentrations of [^3H]compound in 100 mM NaCl, 20 mM Tris HCl, pH 7.4 buffer containing 0.01% w/v bovine serum albumin (BSA) for 18 h. Non-specific binding is determined in the presence of 1 μM unlabeled compound. After 18 h, the reactants are filtered through GF/C glass fiber filters presoaked in 0.5% w/v polyethylene imine. Filters are washed with 15 mL ice cold 100 mM NaCl, 20 mM Tris HCl, pH7.4 buffer containing 0.25% BSA to separate bound from free ligand. [^3H]compound bound to filters is quantified by liquid scintillation counting.
Competitive binding experiments: Binding reactions are performed in 96-well polypropylene plates at room temperature for 18 h. In 360 μL, membranes are incubated with 100 pM [^3H]compound and increasing concentrations of Test Compound. Non-specific binding is defined in the presence of 1 μM unlabeled compound. Reactions are transferred and filtered through 96-well glass fiber/C filter plates presoaked with 0.5% polyethylene imine. The filtered reactions are washed 5 times with 200 μL ice cold buffer containing 0.25% BSA. Bound radioactivity is determined by liquid scintillation counting.
Data Analysis: For saturation experiments, non-specific binding is subtracted from total binding to provide specific binding and these values are recalculated in terms of pmol ligand bound per mg protein. Saturation curves are constructed and dissociation constants are calculated using the single site ligand binding model: Beq=(Bmax*X)/(X+Kd), where Beq is the amount of ligand bound at equilibrium, Bmax is the maximum receptor density, Kd is the dissociation constant for the ligand, and X is the free ligand concentration. For competition studies percent inhibition is determined and IC50 values are calculated using a 4 parameter logistic model (% inhibition=(A+((B−A)/(1+((x/C)^D)))) using XLfit, where A and B are the maximal and minimum inhibition respectively, C is the IC50 concentration and D is the (Hill) slope.
Example 64b. Tritiated Compound Binding to Membranes Isolated from Cells that Heterologous Express hNav1.7 and the β1 Subunit
Preparation of membranes containing recombinantly expressed sodium channels: Following the procedure described in 31a, and making modifications as required to: centrifuge supernatants at 100000×g instead of 10000×g; re-suspend pellets in a buffer containing 0.01% BSA in addition to 100 mM NaCl, 20 mM Tris HCl, pH 7.4 buffer, and 1% v/v […]; and storing membranes at −80° C. in single use aliquots instead of pooled. […]

`CN(C)[C@H]1C[C@@H](c2cccc(C(F)(F)F)c2)CC[C@@H]1Oc1ccc(S(=O)(=O)Nc2ccncn2)c(C2CC2)n1` [Example 34, 2-Cyclopropyl-6-(((1S,2S,4S)-2-(dimethylamino)-4-(3-(trifluoromethyl)phenyl)-cyclohexyl)oxy)-N-(pyrimidin-4-yl)pyridine-3-sulfonamide] and `CCc1nc(O[C@H]2CC[C@H](c3cccc(C(F)(F)F)c3)C[C@@H]2N(C)C)ccc1S(=O)(=O)Nc1ccncn1` [Example 33, 6-(((1S,2S,4S)-2-(Dimethylamino)-4-(3-(trifluoromethyl)phenyl)cyclohexyl)oxy)-2-ethyl-N-(pyrimidin-4-yl)pyridine-3-sulfonamide] are within 1.5-fold of each other in IC50: 1.15 nM for the first, 1.54 nM for the second.

First: Cc1nc(O[C@H]2CC[C@H](c3cc(Cl)cc(C(F)(F)F)c3)C[C@@H]2N(C)C)ccc1S(=O)(=O)Nc1ccncn1 [Example 49, 6-(((1S,2S,4S)-4-(3-chloro-5-(trifluoromethyl)phenyl)-2-(dimethylamino)cyclohexyl)oxy)-2-methyl-N-(pyrimidin-4-yl)pyridine-3-sulfonamide]
Second: Cc1nc(O[C@H]2CC[C@H](c3cc(F)cc(C(F)(F)F)c3)C[C@@H]2N(C)C)ccc1S(=O)(=O)Nc1ccncn1 [Example 42, 6-(((1S,2S,4S)-2-(Dimethylamino)-4-(3-fluoro-5-(trifluoromethyl)phenyl)cyclohexyl)oxy)-2-methyl-N-(pyrimidin-4-yl)pyridine-3-sulfonamide]
The IC50 of the first is 1.7-fold higher: 1.2 nM for the first, 0.72 nM for the second.

Compared with `Cc1nc(O[C@H]2CC[C@H](c3cccc(C(F)(F)F)c3C)C[C@@H]2N(C)C)ccc1S(=O)(=O)Nc1ccncn1` [Example 60, 6-(((1S,2S,4S)-2-(dimethylamino)-4-(2-methyl-3-(trifluoromethyl)phenyl)cyclohexyl)oxy)-2-methyl-N-(pyrimidin-4-yl)pyridine-3-sulfonamide], `Cc1ccc(C(F)(F)F)cc1[C@H]1CC[C@H](Oc2ccc(S(=O)(=O)Nc3ccncn3)c(C)n2)[C@@H](N(C)C)C1` [Example 54, 6-(((1S,2S,4S)-2-(dimethylamino)-4-(2-methyl-5-(trifluoromethyl)phenyl)cyclohexyl)oxy)-2-methyl-N-(pyrimidin-4-yl)pyridine-3-sulfonamide] is 5.1-fold lower in IC50: 3.51 nM for the first, 0.695 nM for the second. The second is the more potent here.

`Cc1nc(O[C@H]2CC[C@H](c3ccc(F)c(C(F)(F)F)c3)C[C@@H]2N(C)C)ccc1S(=O)(=O)Nc1ccncn1` [Example 45, 6-(((1S,2S,4S)-2-(Dimethylamino)-4-(4-fluoro-3-(trifluoromethyl)phenyl)cyclohexyl)oxy)-2-methyl-N-(pyrimidin-4-yl)pyridine-3-sulfonamide formate] and `Cc1nc(O[C@H]2CC[C@H](c3ccc(Cl)c(C(F)(F)F)c3)C[C@@H]2N(C)C)ccc1S(=O)(=O)Nc1ccncn1` [Example 36, 6-(((1S,2S,4S)-4-(4-chloro-3-(trifluoromethyl)phenyl)-2-(dimethylamino)cyclohexyl)oxy)-2-methyl-N-(pyrimidin-4-yl)pyridine-3-sulfonamide] are within 1.5-fold of each other in IC50: 0.913 nM for the first, 1.28 nM for the second.

First: Cc1nc(O[C@H]2CC[C@H](c3cccc(OC(F)(F)F)c3)C[C@@H]2N(C)C)ccc1S(=O)(=O)Nc1ccncn1 [Example 28, 6-(((1S,2S,4S)-2-(Dimethylamino)-4-(3-(trifluoromethoxy)phenyl)cyclohexyl)oxy)-2-methyl-N-(pyrimidin-4-yl)pyridine-3-sulfonamide]
Second: CCN(CC)[C@H]1C[C@@H](c2cccc(C(F)(F)F)c2)CC[C@@H]1Oc1ccc(S(=O)(=O)Nc2ccncn2)c(C)n1 [Example 47, 6-(((1S,2S,4S)-2-(Diethylamino)-4-(3-(trifluoromethyl)phenyl)cyclohexyl)oxy)-2-methyl-N-(pyrimidin-4-yl)pyridine-3-sulfonamide]
The IC50 of the first is 4.5-fold higher: 4.11 nM for the first, 0.915 nM for the second. The second is the more potent here.

Going from `O=S(=O)(Nc1ccncn1)c1ccc(O[C@H]2CC[C@H](c3cccc(OC(F)(F)F)c3)C[C@@H]2N2CCCC2)nc1` [Example 10, N-(pyrimidin-4-yl)-6-(((1S,2S,4S)-2-(pyrrolidin-1-yl)-4-(3-(trifluoromethoxy)phenyl)cyclohexyl)oxy)-pyridine-3-sulfonamide] to `O=S(=O)(Nc1ccncn1)c1ccc(O[C@H]2CC[C@H](c3cccc(C(F)(F)F)c3)C[C@@H]2N2CCCC2)nc1` [Example 17, N-(pyrimidin-4-yl)-6-(((1S,2S,4S)-2-(pyrrolidin-1-yl)-4-(3-(trifluoromethyl)phenyl)cyclohexyl)oxy)-pyridine-3-sulfonamide formate], the IC50 falls from 67.4 nM to 1.18 nM (57-fold).

Compared with `Cc1nc(O[C@H]2CC[C@H](c3cccc(C(F)(F)F)c3)C[C@@H]2N2CCCC2)ccc1S(=O)(=O)Nc1ccncn1` [Example 29, 2-Methyl-N-(pyrimidin-4-yl)-6-(((1S,2S,4S)-2-(pyrrolidin-1-yl)-4-(3-(trifluoromethyl)phenyl)-cyclohexyl)oxy)pyridine-3-sulfonamide], `Cc1cc(O[C@H]2CC[C@H](c3cccc(C(F)(F)F)c3)C[C@@H]2N(C)C)ncc1S(=O)(=O)Nc1ccncn1` [Example 32, 6-(((1S,2S,4S)-2-(Dimethylamino)-4-(3-(trifluoromethyl)phenyl)cyclohexyl)oxy)-4-methyl-N-(pyrimidin-4-yl)pyridine-3-sulfonamide] is 33-fold lower in IC50: 67.4 nM for the first, 2.07 nM for the second. The second is the more potent here.

First: Cc1nc(O[C@H]2CC[C@H](c3ccc(Cl)c(C(F)(F)F)n3)C[C@@H]2N(C)C)ccc1S(=O)(=O)Nc1ccncn1 [Example 62, 6-(((1S,2S,4S)-4-(5-chloro-6-(trifluoromethyl)pyridin-2-yl)-2-(dimethylamino)-cyclohexyl)oxy)-2-methyl-N-(pyrimidin-4-yl)pyridine-3-sulfonamide]
Second: Cc1nc(O[C@H]2CC[C@H](c3cccc(C(F)(F)F)c3)C[C@@H]2N(C)C)c(F)cc1S(=O)(=O)Nc1ccncn1 [Example 53, 6-(((1S,2S,4S)-2-(Dimethylamino)-4-(3-(trifluoromethyl)phenyl)cyclohexyl)oxy)-5-fluoro-2-methyl-N-(pyrimidin-4-yl)pyridine-3-sulfonamide formate]
The IC50 of the first is 3.1-fold higher: 1.89 nM for the first, 0.615 nM for the second.

Compared with `CN(C)[C@H]1C[C@@H](c2cccc(C(F)(F)F)c2)CC[C@@H]1Nc1ncc(S(=O)(=O)Nc2ccncn2)cc1Cl` [Example 4, 5-Chloro-6-(((1S,2S,4S)-2-(dimethylamino)-4-(3-(trifluoromethyl)phenyl)cyclohexyl)amino)-N-(pyrimidin-4-yl)pyridine-3-sulfonamide], `CN(C)[C@H]1C[C@@H](c2ccc(Cl)c(C(F)(F)F)c2)CC[C@@H]1Nc1ccc(S(=O)(=O)Nc2ccncn2)cn1` [Example 11, 6-(((1S,2S,4S)-4-(4-chloro-3-(trifluoromethyl)phenyl)-2-(dimethylamino)cyclohexyl)amino)-N-(pyrimidin-4-yl)pyridine-3-sulfonamide formate] is 2-fold higher in IC50: 8.3 nM for the first, 16.6 nM for the second.

Compared with `COc1cc(S(=O)(=O)Nc2ccncn2)cnc1O[C@H]1CC[C@H](c2cccc(C(F)(F)F)c2)C[C@@H]1N(C)C` [Example 61, 6-(((1S,2S,4S)-2-(Dimethylamino)-4-(3-(trifluoromethyl)phenyl)cyclohexyl)oxy)-5-methoxy-N-(pyrimidin-4-yl)pyridine-3-sulfonamide formate], `CN(C)[C@H]1C[C@@H](c2cccc(C(F)(F)F)c2)CC[C@@H]1Oc1ncc(S(=O)(=O)Nc2ccncn2)cc1C#N` [Example 6, 5-Cyano-6-(((1S,2S,4S)-2-(dimethylamino)-4-(3-(trifluoromethyl)phenyl)cyclohexyl)oxy)-N-(pyrimidin-4-yl)pyridine-3-sulfonamide formate] is 24-fold higher in IC50: 1.9 nM for the first, 44.8 nM for the second.

`CN(C)[C@H]1C[C@@H](c2cccc(OC(F)(F)F)c2)CC[C@@H]1Oc1ncc(S(=O)(=O)Nc2ccncn2)cc1Cl` [Example 13, 5-chloro-6-(((1S,2S,4S)-2-(dimethylamino)-4-(3-(trifluoromethoxy)phenyl)cyclohexyl)oxy)-N-(pyrimidin-4-yl)pyridine-3-sulfonamide] was tested, and the IC50 was 13.8 nM.
